Patent EP3851117A1, “INHIBITORS OF INTRACELLULAR BACTERIAL GROWTH AND PERSISTENCE AS ANTIBIOTICS” (Consejo Superior de Investigaciones Científicas (CSIC), priority 2020, dated 2021)
≈ marks a conversion by molar mass, not a printed value. Entries after “also recorded” stand apart in the source; their conditions may differ.

How the values were obtained:
[1] = tested on: S. Typhimurium mutant lacking PBP2SAL; assay: Spot dilution assay on PCN plates with antibiotic; assay type: cell-based; details: pH 4.6
Protocol: (§1) PCN plates for spot dilution assays were prepared by mixing 7.5 ml of sterile PCN medium (2x concentrated) at the desired pH and 7.5 ml of autoclaved agar (30 mg/mL). The mixture was supplemented with 0.01% (w/v) yeast extract (YE). Cultures were grown in PCN pH 4.6 medium overnight and adjusted to same optical density values. These cultures were serially 10-fold diluted. 5 µl of each dilution was spotted onto PCN plates with or without antibiotic added.

[2] = tested on: S. Typhimurium mutant lacking PBP2; assay: Spot dilution assay on PCN plates with antibiotic; assay type: cell-based
Protocol: as §1

[3] = tested on: S. Typhimurium (wild-type); assay: Spot dilution assay on PCN plates with antibiotic; assay type: cell-based; details: MEC 5 µg/mL, ATM 0.125 µg/mL
Protocol: as §1

[4] = tested on: S. Typhimurium mutant lacking PBP2; assay: BALB/c mice challenge, bacterial load in spleen; assay type: in vivo; details: intraperitoneal, every 24 h
Protocol: (§2) Groups of three 8-week-old female BALB/c mice were inoculated with the following isogenic strains: MD5064 (PBP2SAL::3xFlag PBP3SAL::3xFlag), MD5063 (ΔPBP2, ΔPBP2SAL), MD5544 (ΔPBP2 ΔPBP2SAL pPBP2SAL::PBP2), MD5542 (ΔPBP3, ΔPBP3SAL and ΔPBP3 ΔPBP3SAL pPBP3SAL::PBP3). The doses used were 2x10^3 CFU in 200 µl of sterile PBS. Along four days, mice received intraperitoneally every 24 h a regime consisting in 10 mg mecillinam (MEC) or 2.5 mg aztreonam (ATM) per animal in 200 µl of sterile water. Mice were sacrificed four days post inoculation and spleens homogenized in 5 ml of sterile PBS. Aliquots (100 µl) of 10-fold serial dilutions of the homogenates were cultured in LB pH 4.6 plates to quantify the number of viable S. Typhimurium. To detect PBPs in vivo, spleen extracts from three mice were prepared at 72 hpi as described previously (Dominguez-Bernal, G. et al. Mol Microbiol. 2004; 53: 1437-1449). The protocols used in the study were approved by the Consejería de Medio Ambiente de la Comunidad de Madrid (ref. PROEX 110/19).

[5] = tested on: S. Typhimurium bacteria lacking PBP2SAL; assay: BALB/c mice challenge, bacterial load in spleen; assay type: in vivo; details: intraperitoneal, every 24 h
Protocol: as §2

[6] = tested on: S. Typhimurium wild-type bacteria; assay: BALB/c mice challenge, bacterial load in spleen; assay type: in vivo; details: intraperitoneal, every 24 h
Protocol: as §2

[7] = tested on: S. Typhimurium wild-type bacteria; assay: Antibiotic susceptibility with MIC strips (E-test) on PCN agar plates with 0.01% YE; assay type: cell-based; details: for susceptibility following the switch to acid pH: switch to acid pH (4.6), PBP3SAL expression; for MIC: Salmonella enterica, TYPHIMURIUM
Source text: (§3) S. Typhimurium cultures grown in PCN 4.6 were normalized to an optical density at 600 nm (OD600) of 0.1 and diluted 1:10. One hundred twenty microliters of this dilution were spread onto PCN plates using glass beads. The assays were repeated at least in three independent biological replicates.

[8] = tested on: S. Typhimurium mutants lacking PBP3SAL; assay: Spot dilution assay on PCN plates with antibiotic; assay type: cell-based; details: pH 4.6
Protocol: as §1

[9] = tested on: S. Typhimurium bacteria lacking PBP3 (ΔPBP3 mutant); assay: Antibiotic susceptibility with MIC strips (E-test) on PCN agar plates with 0.01% YE; assay type: cell-based; details: Salmonella enterica, pH 4.6, read-out: MIC value
Protocol: as §3, with “Antibiotic susceptibility was determined using MIC strips (MIC Test Strip; Liofilchem) in PCN agar plates containing 0.01% YE at neutral or acid pH 4.6. S.” for “S.”

[10] = tested on: intra-phagosomal S. Typhimurium lacking PBP3SAL in RAW 264.7 macrophages; assay: Macrophage infection and colony-forming unit counting; assay type: cell-based; details: 10 µg/mL added to infected macrophages; compared with bacteria lacking PBP3
Protocol: The murine macrophage line RAW 264.7 (400319, Cell Lines Service, CLS, https://clsgmbh.de/) was cultured in Dulbecco's modified Eagle's medium (DMEM) with 5% fetal bovine serum (FBS) and 4 mM glutamine in an incubator at 37°C in a 5% CO2 atmosphere. RAW 264.7 macrophages were seeded in 24-well plates (353047, Falcon) at a density of 2x10^5 cells/well and pre-cultured for 24 h before infection. Macrophages were activated with 2.5 ng/ml interferon-γ (315-05, Peprotech) 24 h prior infection. Culture medium was replaced by fresh medium without interferon-γ and infected with S. Typhimurium strains at a multiplicity of infection (MOI) of 10:1 during 10 min. Macrophages were washed with PBS supplemented with 0.5 mM MgCl2 and 0.9 mM CaCl2 (complete PBS) and extracellular non-phagocytosed bacteria were killed by incubation in medium containing gentamicin (100 µg/ml for 1 h, followed by 10 µg/ml for the remaining incubation). If indicated, aztreonam (ATM) (10 µg/mL) was added at 1 hpi. Infected macrophages were lysed at 1 and 8 hpi. Colony-forming units (CFU) were determined after two washes of the culture with complete PBS buffer, lysis with sterile solution containing 1% (w/v) Triton X 100 and 0.1% (w/v) sodium dodecyl sulfate (SDS) in PBS and plating on LB pH 7.0 or LB pH 4.6. The assays were repeated at least in three independent biological replicates.

[11] = tested on: S. Typhimurium mutant lacking PBP3; assay: BALB/c mice challenge, bacterial load in spleen; assay type: in vivo; details: intraperitoneal, every 24 h
Protocol: as §2

[12] = tested on: S. Typhimurium bacteria lacking PBP3SAL; assay: BALB/c mice challenge, bacterial load in spleen; assay type: in vivo; details: intraperitoneal, every 24 h
Protocol: as §2

[13] = pH 4.6, PCN-0.01% yeast extract

Compound: CC1(C)S[C@@H]2[C@H](/N=C/N3CCCCCC3)C(=O)N2[C@H]1C(=O)O [MEC, mecillinam]
- susceptibility [1]: does not alter susceptibility
- susceptibility ([2]; pH 4.6): does not alter susceptibility
- susceptibility ([2]; pH 7.4): resistant
- susceptibility (bacterial growth) [3, 13]: not at pH 4.6
- susceptibility (bacterial growth) ([3]; pH 7.4): inhibit bacterial growth
- effect on bacterial loads [4]: lesser effect
- bacterial loads [5]: significant decrease of bacterial loads
- load of bacteria in spleen [6]: did not result in a statistically significant decrease; also recorded: slightly effect of reduced viability

Compound: CC(C)(O/N=C(\C(=O)N[C@@H]1C(=O)N2C(C(=O)[O-])=C(C[n+]3ccccc3)CS[C@H]12)c1csc(N)n1)C(=O)O [ceftazidime]
- susceptibility following the switch to acid pH [7]: decreased susceptibility

Compound: CC(=O)OCC1=C(C(=O)O)N2C(=O)[C@@H](NC(=O)Cc3cccs3)[C@H]2SC1 [cephalotin]
- susceptibility following the switch to acid pH [7]: decreased susceptibility

Compound: C[C@H]1[C@H](NC(=O)/C(=N\OC(C)(C)C(=O)O)c2csc(N)n2)C(=O)N1S(=O)(=O)O [ATM, aztreonam]
- MIC ([7]; pH 4.6): 0.125 mg/L (≈ 0.287 µM)
- MIC ([7]; pH 7.4): < 0.016 mg/L
- antimicrobial activity [8]: showed antimicrobial activity
- susceptibility (bacterial growth) [3, 13]: not at pH 4.6; also recorded: resistant
- susceptibility (bacterial growth) ([3]; pH 7.4): inhibit bacterial growth; also recorded: susceptible
- MIC [9]: 0.75 mg/L (≈ 1.72 µM)
- susceptibility of intra-phagosomal bacteria [10]: more susceptible
- effect on bacterial loads [11]: lesser effect
- bacterial loads [12]: significant decrease of bacterial loads
- load of bacteria in spleen [6]: did not result in a statistically significant decrease

Compound: CO/N=C(\C(=O)N[C@@H]1C(=O)N2C(C(=O)O)=C(COC(N)=O)CS[C@H]12)c1ccco1 [cefuroxime]
- susceptibility following the switch to acid pH [7]: decreased susceptibility

Compound: CO/N=C(\C(=O)N[C@@H]1C(=O)N2C(C(=O)O)=C(COC(C)=O)CS[C@H]12)c1csc(N)n1 [cefotaxime]
- susceptibility following the switch to acid pH [7]: decreased susceptibility
